Measured values: US8754115B2, “Fungicidal pyrazoles” (E I du Pont de Nemours and Company, priority 2010, dated 2014)
Marks after values point to notes of the source that are not given here.

Legend:
Assay type in all cases: in vivo
[1] = system: Puccinia recondite f. sp. tritici; assay: Test E2: preventive spray on wheat seedlings, visual disease rating (wheat leaf rust)
Summary of the method: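 Test suspension (acetone 3% of volume, acetone/water 50/50, 250 ppm Trem 014), 200 ppm unless starred (40 ppm), sprayed to run-off on wheat seedlings; inoculated next day with P. recondita spores. 24 h saturated atmosphere at 20 °C, then 7 days at 20 °C; visual rating, 100 = full control vs untreated.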

Botrytis cinerea = assay: Test A: preventive spray on tomato seedlings, visual disease rating (tomato Botrytis)
Summary of the method: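 Tomato seedlings sprayed to run-off with 200 ppm suspension (800 g/ha; asterisk marks 40 ppm), inoculated next day with Botrytis cinerea spores, held 48 h saturated at 20 °C then 3 days at 24 °C. Visual rating: 100 = full disease control, 0 = none, relative to controls.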

Alternaria solani = assay: Test B: preventive spray on tomato seedlings, visual disease rating (tomato early blight)
Text: (§1) General protocol for preparing test suspensions for Tests A-F: the test compounds were first dissolved in acetone in an amount equal to 3% of the final volume and then suspended at the desired concentration (in ppm) in acetone and purified water (50/50 mix by volume) containing 250 ppm of the surfactant Trem® 014 (polyhydric alcohol esters). The resulting test suspensions were then used in Tests A-F. Spraying a 200 ppm test suspension to the point of run-off on the test plants was the equivalent of a rate of 800 g/ha. Unless otherwise indicated, the rating values indicate a 200 ppm test suspension was used. (An asterisk “*” next to the rating value indicates a 40 ppm test suspension was used.)
The test suspension was sprayed to the point of run-off on tomato seedlings. The following day the seedlings were inoculated with a spore suspension of Alternaria solani (the causal agent of tomato early blight) and incubated in a saturated atmosphere at 27° C. for 48 h, and then moved to a growth chamber at 20° C. for 5 days, after which time visual disease ratings were made.
(§2) Results for Tests A-F are given in Table A. In the Table, a rating of 100 indicates 100% disease control and a rating of 0 indicates no disease control (relative to the controls). A dash (-) indicates no test results. An asterisk “*” next to the rating value indicates a 40 ppm test suspension was used.

[2] = system: Blumeria graminis f. sp. tritici; assay: Test F: preventive spray on wheat seedlings, visual disease rating (wheat powdery mildew)
Summary of the method: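 Compound in acetone/water (50/50) with 250 ppm surfactant, sprayed to run-off on wheat seedlings at 200 ppm (≈800 g/ha) or, where marked, 40 ppm. Seedlings dusted with spores the next day, kept 8 days at 20° C., then rated visually as % disease control versus untreated plants.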

Septoria nodorum = assay: Test C: preventive spray on wheat seedlings, visual disease rating (Septoria glume blotch)
Text: as §1
The test suspension was sprayed to the point of run-off on wheat seedlings. The following day the seedlings were inoculated with a spore suspension of Septoria nodorum (the causal agent of Septoria glume blotch) and incubated in a saturated atmosphere at 24° C. for 48 h, and then moved to a growth chamber at 20° C. for 6 days, after which time visual disease ratings were made.
as §2

[3] = system: Puccinia recondite f. sp. tritici; assay: Test E1: curative spray on wheat seedlings after inoculation, visual disease rating (wheat leaf rust)
Text: as §1
Wheat seedlings were inoculated with a spore suspension of Puccinia recondite f. sp. tritici (the causal agent of wheat leaf rust) and incubated in a saturated atmosphere at 20° C. for 24 h, and then moved to a growth chamber at 20° C. for 2 days. After 2 days, the test suspension was sprayed to the point of run-off on the wheat seedlings, and then the seedlings were moved back to the growth chamber at 20° C. for 6 days. Upon removal, visual disease ratings were made.
as §2

Septoria tritici = assay: Test D: preventive spray on wheat seedlings, visual disease rating (wheat leaf blotch)
Summary of the method: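 Wheat seedlings were sprayed to run-off with a 200 ppm suspension (equal to 800 g/ha), or 40 ppm where marked with an asterisk, and inoculated with Septoria tritici spores the next day. Plants were kept at 24 °C in saturated air for 48 h, then at 20 °C for 19 days. Disease control was rated visually from 0 to 100 relative to controls.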

[4] = no asterisk: standard test suspension, not 40 ppm
[5] = no asterisk: standard test suspension, not 40 ppm, 100 = 100% disease control, 0 = none
[6] = asterisk: 40 ppm test suspension

Row | Molecule | Test E2 rating (% disease control) [1, 4] [%] | Test A rating (% disease control) (Botrytis cinerea; [5]) [%] | Test B rating (% disease control) (Alternaria solani; [4]) [%] | Test F rating (% disease control) [2, 4] [%] | Test C rating (% disease control) (Septoria nodorum; [4]) [%] | Test E1 rating (% disease control) [3, 4] [%] | Test D rating (% disease control) (Septoria tritici; [4]) [%] | Test E2 rating (% disease control) [1, 6] | Test A rating (% disease control) (Botrytis cinerea; [6]) | Test B rating (% disease control) (Alternaria solani; [6]) | Test F rating (% disease control) [2, 6] | Test C rating (% disease control) (Septoria nodorum; [6]) | Test E1 rating (% disease control) [3, 6] | Test D rating (% disease control) (Septoria tritici; [6])
1 | Cc1nn(C)c(-c2c(F)cccc2Cl)c1C(O)c1ccc(C#N)cc1F (centres unmarked) [compound 38] | 100 | 85 | 99 | 98 | 100 | 0 | 100 | – | – | – | – | – | – | –
2 | Cc1nn(C)c(-c2c(F)cccc2Cl)c1C(O)c1c(Cl)cccc1Cl (centres unmarked) [compound 85] | 100 | 97 | 84 | 50 | 0 | 9 | 100 | – | – | – | – | – | – | –
3 | Cc1nn(C)c(-c2ccc(F)cc2Cl)c1C(O)c1c(F)cc(F)cc1F (centres unmarked) [compound 19] | 100 | 99 | 100 | 100 | 100 | 100 | 100 | – | – | – | – | – | – | –
4 | Cc1nn(C)c(-c2c(F)cccc2F)c1Nc1ccc(Cl)cc1Cl [compound 65] | 89 | 100 | 0 | 100 | 0 | 9 | 100 | – | – | – | – | – | – | –
5 | 4-(2-chloro-4-fluorophenoxy)-5-(2,4-difluorophenyl)-1,3-dimethyl-1H-pyrazole [Compound 5] | 100 | 100 | 100 | 100 | 100 | 99 | 100 | – | – | – | – | – | – | –
6 | Cc1nn(C)c(-c2ccc(F)cc2F)c1Nc1ccc(F)cc1Cl [compound 57] | – | – | – | – | – | – | – | 18* % | 99* % | 0* % | 97* % | 0* % | 0* % | 81* %
7 | Cc1nn(C)c(-c2c(F)cccc2Cl)c1C(=O)c1ccc(F)cc1F [compound 28] | 8 | 56 | 0 | 79 | 0 | 0 | 0 | – | – | – | – | – | – | –
8 | Cc1nn(C)c(-c2c(F)cccc2Cl)c1C(=O)c1ccc(Cl)cc1Cl [compound 27] | 0 | 0 | 0 | 81 | 0 | 0 | 0 | – | – | – | – | – | – | –
9 | COC(c1ccc(F)cc1Cl)c1c(C)nn(C)c1-c1c(F)cccc1Cl (centres unmarked) [Compound 67] | 90 | 57 | 9 | 100 | 0 | 28 | 100 | – | – | – | – | – | – | –
10 | Cc1nn(C)c(-c2ccccc2Br)c1C(O)c1ccc(F)cc1Cl (single isomer, unassigned) [compound 79] | 100 | 98 | 0 | 99 | 0 | 53 | 100 | – | – | – | – | – | – | –
11 | Cc1nn(C)c(-c2c(F)cccc2F)c1C(O)c1ccc(C#N)cc1F (centres unmarked) [compound 22] | 88 | 88 | 84 | 0 | 0 | 17 | 100 | – | – | – | – | – | – | –
12 | Cc1nn(C)c(-c2c(F)cccc2F)c1C(Cl)c1ccc(F)cc1Cl (centres unmarked) [Compound 84] | – | – | – | – | – | – | – | 100* % | 96* % | 100* % | 100* % | 99* % | 41* % | 100* %
13 | Cc1nn(C)c(-c2c(F)cc(F)cc2F)c1C(O)c1ccc(F)cc1F (centres unmarked) [compound 66] | 100 | 100 | 100 | 99 | 95 | 55 | 100 | – | – | – | – | – | – | –
14 | Cc1nn(C)c(-c2ccc(F)cc2F)c1Oc1ccc(C#N)cc1Cl [compound 35] | 73 | 98 | 0 | 0 | 0 | 9 | 100 | – | – | – | – | – | – | –
15 | Cc1nn(C)c(-c2c(F)cccc2Cl)c1C(C)(O)c1ccc(F)cc1F (centres unmarked) [Compound 29] | 100 | 100 | 64 | 96 | 0 | 0 | – | – | – | – | – | – | – | –
16 | Cc1nn(C)c(-c2ccc(C#N)cc2F)c1Oc1ccc(F)cc1F [compound 26] | 79 | 100 | 0 | 64 | 0 | 0 | – | – | – | – | – | – | – | –
